In patent publication US7579469B2, “Glucocorticoid mimetics, methods of making them, pharmaceutical compositions, and uses thereof” (Boehringer Ingelheim Pharmaceuticals, Inc., priority 2003, dated 2009):

Each molecule was assayed against T1, human glucocorticoid receptor (GR) complex (Homo sapiens, UniProt P04150) (assay: Glucocorticoid receptor competitive binding assay (fluorescence polarization)). Conditions: competition with TAMRA-labeled dexamethasone.
T1 construct: made in house; host or cells: insect expression system (baculovirus lysate)
T1 sequence (P04150 1-777): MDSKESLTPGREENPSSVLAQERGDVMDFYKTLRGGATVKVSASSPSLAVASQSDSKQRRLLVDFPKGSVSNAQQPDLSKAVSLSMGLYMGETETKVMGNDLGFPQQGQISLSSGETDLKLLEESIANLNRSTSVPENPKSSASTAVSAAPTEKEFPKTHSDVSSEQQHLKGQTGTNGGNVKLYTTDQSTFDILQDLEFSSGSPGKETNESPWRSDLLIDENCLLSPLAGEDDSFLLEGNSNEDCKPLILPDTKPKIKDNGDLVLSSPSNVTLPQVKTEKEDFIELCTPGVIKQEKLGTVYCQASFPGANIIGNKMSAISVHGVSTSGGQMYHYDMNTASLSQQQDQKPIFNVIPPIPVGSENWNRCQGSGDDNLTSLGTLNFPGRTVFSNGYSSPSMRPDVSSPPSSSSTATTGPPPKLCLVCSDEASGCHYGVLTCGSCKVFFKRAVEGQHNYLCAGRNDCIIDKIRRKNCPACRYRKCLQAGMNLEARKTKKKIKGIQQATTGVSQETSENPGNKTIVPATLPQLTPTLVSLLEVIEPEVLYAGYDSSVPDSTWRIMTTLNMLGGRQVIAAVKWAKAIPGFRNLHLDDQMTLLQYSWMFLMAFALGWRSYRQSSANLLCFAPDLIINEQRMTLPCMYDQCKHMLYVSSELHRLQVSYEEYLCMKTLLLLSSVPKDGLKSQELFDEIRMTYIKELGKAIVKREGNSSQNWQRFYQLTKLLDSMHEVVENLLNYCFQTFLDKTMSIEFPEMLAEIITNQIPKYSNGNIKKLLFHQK
Protocol: Compounds of the invention were evaluated for binding to the steroid receptor by a fluorescence polarization competitive binding assay.
A. Glucocorticoid Receptor Competitive Binding Assay
Step 1. Characterization of the Fluorescent Probe
The wavelengths for maximum excitation and emission of the fluorescent probe should first be measured. An example of such a probe is rhodamine (TAMRA)-labeled dexamethasone.
The affinity of the probe for the steroid receptor was then determined in a titration experiment. The fluorescence polarization value of the probe in assay buffer was measured on an SLM-8100 fluorometer using the excitation and emission maximum values described above. Aliquots of expression vector lysate were added and fluorescence polarization was measured after each addition until no further change in polarization value was observed. Non-linear least squares regression analysis was used to calculate the dissociation constant of the probe from the polarization values obtained for lysate binding to the probe.
Step 2. Screening for Inhibitors of Probe Binding
This assay uses fluorescence polarization (FP) to quantitate the ability of test compounds to compete with tetramethyl rhodamine (TAMRA)-labeled dexamethasone for binding to a human glucocorticoid receptor (GR) complex prepared from an insect expression system. The assay buffer was: 10 mM TES, 50 mM KCl, 20 mM Na2MoO4.2H20, 1.5 mM EDTA, 0.04% w/v CHAPS, 10% v/v glycerol, 1 mM dithiothreitol, pH 7.4. Test compounds were dissolved to 1 mM in neat DMSO and then further diluted to 10× assay concentration in assay buffer supplemented with 10% v/v DMSO. Test compounds were serially diluted at 10× assay concentrations in 10% DMSO-containing buffer in 96-well polypropylene plates. Binding reaction mixtures were prepared in 96-well black Dynex microtiter plates by sequential addition of the following assay components to each well: 15 μL of 10× test compound solution, 85 μL of GR-containing baculovirus lysate diluted 1:170 in assay buffer, and 50 μL of 15 nM TAMRA-labeled dexamethasone. Positive controls were reaction mixtures containing no test compound; negative controls (blanks) were reaction mixtures containing 0.7 μM to 2 μM dexamethasone. […] IC50 values were determined by iterative non-linear curve fitting of the FP signal data to a 4-parameter logistic equation.

| SMILES | activity in the GR binding assay |
| --- | --- |
| CC(C)(CC(O)(Cn1ccc(=O)c2ccccc21)C(F)(F)F)c1cc(-c2cccnc2)ccc1O (stereo not shown) [1-[2-Hydroxy-4-(2-hydroxy-5-pyridin-3-ylphenyl)-4-methyl-2-trifluoromethylpentyl]-1H-quinolin-4-one] | potent activity |
| CC(C)(CC(O)(Cn1ccc(=O)c2ccccc21)C(F)(F)F)c1cc(-c2ccsc2)ccc1O (stereo not shown) [1-[2-Hydroxy-4-(2-hydroxy-5-thiophen-3-ylphenyl)-4-methyl-2-trifluoromethylpentyl]-1H-quinolin-4-one] | potent activity |
| COc1ccc(C)cc1C(C)(C)CC(O)(Cn1ccc(=O)c2ccccc21)C(F)(F)F (stereo not shown) [1-[2-Hydroxy-4-(2-methoxy-5-methylphenyl)-4-methyl-2-trifluoromethylpentyl]-1H-quinolin-4-one] | potent activity |
| COc1ccc(CN2CCOCC2)cc1C(C)(C)CC(O)(Cn1ccc(=O)c2ccccc21)C(F)(F)F (stereo not shown) [1-[2-Hydroxy-4-(2-methoxy-5-morpholin-4-ylmethylphenyl)-4-methyl-2-trifluoromethylpentyl]-1H-quinolin-4-one] | potent activity |
| COc1ccc(-c2cccs2)cc1C(C)(C)CC(O)(Cn1ccc(=O)c2ccccc21)C(F)(F)F (stereo not shown) [1-[2-Hydroxy-4-(2-methoxy-5-thiophen-2-ylphenyl)-4-methyl-2-trifluoromethylpentyl]-1H-quinolin-4-one] | potent activity |
| CC(C)(CC(O)(Cn1ccc(=O)c2ccccc21)C(F)(F)F)c1cccc(O)c1 (stereo not shown) [1-[2-Hydroxy-4-(3-hydroxyphenyl)-4-methyl-2-trifluoromethylpentyl]-1H-quinolin-4-one] | potent activity |
| COc1cccc(C(C)(C)CC(O)(Cn2ccc(=O)c3ccccc32)C(F)(F)F)c1 (stereo not shown) [1-[2-Hydroxy-4-(3-methoxyphenyl)-4-methyl-2-trifluoromethylpentyl]-1H-quinolin-4-one] | potent activity |
| CC(C)(CC(O)(Cn1ccc(=O)c2ccccc21)C(F)(F)F)c1cc(-c2ccccc2)ccc1O (stereo not shown) [1-[2-Hydroxy-4-(4-hydroxybiphenyl-3-yl)-4-methyl-2-trifluoromethylpentyl]-1H-quinolin-4-one] | potent activity |
| COc1ccc(-c2ccccc2)cc1C(C)(C)CC(O)(Cn1ccc(=O)c2ccccc21)C(F)(F)F (stereo not shown) [1-[2-Hydroxy-4-(4-methoxybiphenyl-3-yl)-4-methyl-2-trifluoromethylpentyl]-1H-quinolin-4-one] | potent activity |
| COc1ccc(CO)cc1C(C)(C)CC(O)(Cn1ccc(=O)c2ccccc21)C(F)(F)F (stereo not shown) [1-[2-Hydroxy-4-(5-hydroxymethyl-2-methoxyphenyl)-4-methyl-2-trifluoromethylpentyl]-1H-quinolin-4-one] | potent activity |
| C[S+]([O-])c1cc2c(c(C(C)(C)CC(O)(Cn3ccc(=O)c4ccccc43)C(F)(F)F)c1)OCC2 (stereo not shown) [1-[2-Hydroxy-4-(5-methanesulfinyl-2,3-dihydrobenzofuran-7-yl)-4-methyl-2-trifluoromethylpentyl]-1H-quinolin-4-one] | potent activity |
| CC(C)(CC(O)(Cn1ccc(=O)c2ncccc21)C(F)(F)F)c1cc(S(C)(=O)=O)cc2c1OCC2 (stereo not shown) [1-[2-Hydroxy-4-(5-methanesulfonyl-2,3-dihydrobenzofuran-7-yl)-4-methyl-2-trifluoromethylpentyl]-1H-[1,5]naphthyridin-4-one] | potent activity |
| Cc1cn(CC(O)(CC(C)(C)c2cc(S(C)(=O)=O)cc3c2OCC3)C(F)(F)F)c2ccccc2c1=O (stereo not shown) [1-[2-Hydroxy-4-(5-methanesulfonyl-2,3-dihydrobenzofuran-7-yl)-4-methyl-2-trifluoromethylpentyl]-3-methyl-1H-quinolin-4-one] | potent activity |
